# Laboratory results published in patent US20210395256A1, “TYROSINE KINASE INHIBITORS, COMPOSITIONS AND METHODS THERE OF” (Betta Pharmaceuticals Co., Ltd., priority 2018, published 2021).
# Like-named read-outs stand apart in the source and are kept apart here.
# Experiments:
# [1] = molecular target: TrkA kinase (Homo sapiens, UniProt P04629); test: TrkA kinase assay (mobility shift assay); assay type: biochemical; details: read-out: Trk A Kinase IC50
# Method in brief: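 Ten-point compound series was preincubated 10 min at room temperature with TrkA, then FAM-peptide plus ATP added in HEPES pH 7.5/Brij-35 buffer and reacted at 28 °C before EDTA quench.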
# [2] = molecular target: T1, Ba/F3-TPM3-NTRK1 (Homo sapiens, UniProt P04629); test: Ba/F3-TPM3-NTRK1 cells proliferation assay; assay type: cell-based; details: 72 h, CellTiter Glo
# T1 construct: expressed in transfected cells; host or cells: Ba/F3; the other entry of the earlier key: TPM3 (P06753, Tropomyosin alpha-3 chain)
# T1 sequence (P04629 510-796 limits assumed): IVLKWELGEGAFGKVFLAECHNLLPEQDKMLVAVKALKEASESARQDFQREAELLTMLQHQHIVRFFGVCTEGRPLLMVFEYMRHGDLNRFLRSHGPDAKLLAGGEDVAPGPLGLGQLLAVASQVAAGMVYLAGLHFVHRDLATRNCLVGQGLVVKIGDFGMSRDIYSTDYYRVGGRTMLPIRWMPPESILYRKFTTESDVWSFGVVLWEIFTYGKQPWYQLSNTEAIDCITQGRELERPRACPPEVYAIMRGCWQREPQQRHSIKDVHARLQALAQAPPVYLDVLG
# Procedure: (§1) Example 202 Ba/F3-TPM3-NTRK1 and Ba/F3-ETV6-NTRK3 cells proliferation assay
# (§2) Cell line: Ba/F3 cells with TPM3-NTRK1 or ETV6-NTRK3 fusion mutation gene stably overexpressed named Ba/F3-TPM3-NTRK1 and Ba/F3-ETV6-NTRK3.
# (§3) RPMI 1640 and 10% FBS and 1% PS and 2 ug/mL puromycin.
# (§4) b) Collect cell to a 15 mL centrifuged tube, centrifuge at 1000 rpm for 5 min. Discard the supernatant, count, and make the cell density at 1.49×10^4 cells/mL, then place it in a 37° C., 5% CO2 incubator.
# (§5) a) The test compound (20 mM stock solution) was diluted to 60 μM with 100% DMSO as starting concentration then 3-fold serial diluted with “9+0” concentrations. in a 96-well dilution plate (Thermo, Cat. No. 249944);
# (§6) b) The above compound solution was diluted 1:20 times with culture medium to prepare a 10 fold working solution;
# (§7) a) Take cells in log phase growth, centrifuge at 1000 rpm for 5 min, then resuspend the cells with culture medium, then count cells;
# (§8) b) Cells were seeded to 96-well cell culture plate with density at 2000 cells/well;
# (§9) a) Compounds prepared at step 2 were added to cell plate with 15 μL per well, the final concentrations were 300, 100, 33.33, 11.11, 3.70, 1.23, 0.41, 0.14, 0.05 and 0 nM, and the final concentration of DMSO was 0.5%. The blank control well was a culture medium (0.5% DMSO);
# (§10) c) The cells were incubated for an additional 72 h in the incubator.
# (§11) a) Remove the 96-well cell culture plate and add 50 μl of CTG reagent (CellTiter Glo kit, promega, Cat #G7573).
# (§12) b) Plate was shaked for 2 min and then let it cool for 30 min at room temperature.
# (§13) c) The Luminescence signal value was read using a PerkinElmer reader.
# (§14) Experimental Data Analysis
# (§15) Data were analyzed using GraphPad Prism 6.0 software to obtain a fitted curve of compound activity.
# (§16) Fit the Compound IC50 from non-linear regression equation:
# (§17) Y=Bottom+(Top-Bottom)/(1+10^((Log IC50-X)×HillSlope));
# (§18) X: The log of the concentration of the compound; Y: Luminescence value.
# [3] = molecular target: NTRK1-G595R (Homo sapiens, UniProt P04629, G595R); test: NTRK1-G595R cell proliferation assay (Table 13); assay type: cell-based
# Chain of NTRK1-G595R (P04629 33-796 G595R): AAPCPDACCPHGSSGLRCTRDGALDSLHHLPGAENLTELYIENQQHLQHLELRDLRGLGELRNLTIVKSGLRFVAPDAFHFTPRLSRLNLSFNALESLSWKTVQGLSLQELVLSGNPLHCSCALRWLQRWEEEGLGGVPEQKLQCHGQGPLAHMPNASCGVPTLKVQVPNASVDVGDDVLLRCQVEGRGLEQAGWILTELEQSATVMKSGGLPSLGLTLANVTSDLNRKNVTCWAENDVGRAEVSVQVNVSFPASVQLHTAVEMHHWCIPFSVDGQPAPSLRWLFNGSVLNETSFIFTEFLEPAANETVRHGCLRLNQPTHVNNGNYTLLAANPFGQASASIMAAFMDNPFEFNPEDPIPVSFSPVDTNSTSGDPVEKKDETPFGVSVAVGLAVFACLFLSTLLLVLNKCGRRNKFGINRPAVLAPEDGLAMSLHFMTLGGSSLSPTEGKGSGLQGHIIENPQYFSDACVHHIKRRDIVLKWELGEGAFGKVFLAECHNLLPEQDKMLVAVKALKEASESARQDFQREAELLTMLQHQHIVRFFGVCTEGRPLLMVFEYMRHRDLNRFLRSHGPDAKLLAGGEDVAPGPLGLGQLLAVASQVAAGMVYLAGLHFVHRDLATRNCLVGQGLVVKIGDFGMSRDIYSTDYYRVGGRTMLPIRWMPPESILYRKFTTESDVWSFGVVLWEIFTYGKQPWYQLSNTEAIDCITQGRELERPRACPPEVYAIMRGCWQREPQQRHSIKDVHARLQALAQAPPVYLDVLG
# [4] = Plasma protein binding (equilibrium dialysis), human; assay type: in vitro ADME; details: pH 7.4, human plasma, 1 μM, 6 hours dialysis; for fraction unbound at 6 h, 1 μM: read-out: Mean % Bound Human (converted)
# Procedure: (§19) Example 204 Plasma Protein Binding Measurements
# (§20) The plasma protein binding was measured as the following procedure.
# (§21) 1) Preparation of 100 mM sodium phosphate and 150 mM NaCl buffer (PBS)
# (§22) A basic solution was prepared by dissolving 14.2 g/L Na2HPO4 and 8.77 g/L NaCl in deionized water and the solution could be stored at 4° C. for up to 7 days. An acidic solution was prepared by dissolving 12.0 g/L NaH2PO4 and 8.77 g/L NaCl in deionized water and the solution could be stored at 4° C. for up to 7 days. The basic solution was titrated with the acidic solution to pH 7.4 and store at 4° C. for up to 7 days. pH was checked on the day of experiment and was adjusted if outside specification of 7.4±0.1.
# (§23) Frozen plasma was thawed immediately at room temperature.
# (§24) The plasma was centrifuged at 3,220 g for 10 minutes to remove clots and supernatant was collected into a fresh tube. The pH of the plasma was checked and recorded.
# (§25) Note: a). Only use plasma that has been thawed no more than twice since arrival. b). Only use plasma within the range of pH 7 to pH 8.
# (§26) 3) Preparation of working solutions
# (§27) The working solutions of test compounds and control compound ketoconazole were prepared in DMSO at the concentration of 200 μM. And then 3 μL of working solution was removed to mix with 597 μL of human, rat or mouse plasma to achieve a final concentration of 1 μM (0.5% DMSO). Plasma samples were vortexed thoroughly.
# (§28) 4) Preparation of dialysis membranes
# (§29) The dialysis membranes were soaked in ultrapure water for 60 minutes to separate strips, then in 20% ethanol for 20 minutes, finally in dialysis buffer for 20 minutes.
# (§30) 5) Procedure for equilibrium dialysis
# (§31) The dialysis apparatus was assembled according to the manufacturer's instruction. Each cell was filled with 120 μL of plasma sample and dialyzed against equal volume of dialysis buffer (PBS). The assay was performed in duplicate. The dialysis plate was sealed and incubated in an incubator at 37° C. with 5% CO2 at 100 rpm for 6 hours. At the end of incubation, seal was removed and 50 μL of samples from both buffer and plasma chambers were transferred to wells of a 96-well plate.
# (§32) 6) Procedure for sample analysis
# (§33) 50 μL of blank plasma was added to each buffer samples and an equal volume of PBS was supplemented to the collected plasma sample. 300 μL of room temperature quench solution (acetonitrile containing internal standards (1S, 100 nM Alprazolam, 500 nM Labetalol and 2 μM Ketoprofen)) was added to precipitate protein. Samples in plate were vortexed for 5 minutes and centrifuged at 3,220 g for 30 minutes at 4° C. And then 100 μL of the supernatant was transferred to a new 96-well plate with 100 μL or 200 μL water (depends on the LC-MS signal response and peak shape) for LC-MS/MS analysis.
# (§34) Calculate the percentages of test compound and control compound bound as follows:
# (§35) % Free=(Peak Area Ratiobuffer chamber/Peak Area Ratioplasma chamber)*100
# (§36) % Recovery=(Peak Area Ratiobuffer chamber+Peak Area Ratioplasma chamber)/Peak Area Ratio total sample*100
# (§37) Peak Area Ratiobuffer chamber means the conc for free fraction
# (§38) Peak Area Ratioplasma chamber means the conc for both free and bound fraction
# (§39) Peak Area Ratiototal sample means the conc for starting sample before incubation
# [5] = Plasma protein binding (equilibrium dialysis), rat; assay type: in vitro ADME; details: pH 7.4, 6 hours dialysis; for fraction unbound at 6 h, 1 μM: read-out: Mean % Bound Rat (converted)
# Procedure: as §19, §20, §21, §22, §23, §24, §25, §26, §27, §28, §29, §30, §31, §32, §33, §34, §35, §36, §37, §38, §39
# [6] = Plasma protein binding (equilibrium dialysis), mouse; assay type: in vitro ADME; details: pH 7.4, 6 hours dialysis; for fraction unbound at 6 h, 1 μM: read-out: Mean % Bound Mouse (converted)
# Procedure: as §19, §20, §21, §22, §23, §24, §25, §26, §27, §28, §29, §30, §31, §32, §33, §34, §35, §36, §37, §38, §39
# [7] = Liver microsomes metabolic stability assay, rat; assay type: in vitro ADME; details: rat liver microsomes 0.5 mg/mL, 37° C.
# Procedure: (§40) Example 203 Liver Microsomes Metabolic Stability Assay
# (§41) Pooled human liver microsomes (Cat. 452117) were purchased from Corning. Pooled male rat liver microsomes (Cat. R1000) and pooled male mouse liver microsomes (Cat. M1000) were purchased from XENOTECH. Microsomes were stored at −80° C.
# (§42) 1) Make a master solution containing phosphate buffer, ultra-pure H2O and MgCl2 solution according to Table 14.
# (§43) 2) Two separated experiments were performed as follows.
# (§44) a) With NADPH: 10 μL of 20 mg/mL liver microsomes and 40 μL of 10 mM NADPH were added to the incubations. The final concentrations of microsomes and NADPH were 0.5 mg/mL and 1 mM, respectively.
# (§45) b) Without NADPH: 10 μL of 20 mg/mL liver microsomes and 40 μL of ultra-pure H2O were added to the incubations. The final concentration of microsomes was 0.5 mg/mL.
# (§46) 3) The reaction was started with the addition of 4 μL test compounds solutions or control compound solution (verapamil) at the final concentration of 2 μM and carried out at 37° C.
# (§47) 4) Aliquots of 50 μL were taken from the reaction solution at 0, 15, 30, 45 and 60 min. The reaction solutions were stopped by the addition of 4 volumes of cold acetonitrile with 1S (100 nM alprazolam, 200 nM caffeine, 200 nM labetalol and 2 μM ketoprofen). Samples were centrifuged at 3,220 g for 40 minutes. Aliquot of 100 μL of the supernatant was mixed with 100 μL of ultra-pure H2O and then used for LC-MS/MS analysis. All experiments were performed in duplicate.
# (§48) The slope value, k, was determined by linear regression of the natural logarithm of the remaining percentage of the parent drug vs. incubation time curve.
# (§49) The in vitro half-life (in vitro t1/2) was determined from the slope value:
# (§50) Conversion of the in vitro t1/2 (in min) into the in vitro intrinsic clearance (in vitro CLint, in μL/min/mg proteins) was done using the following equation (mean of duplicate determinations): […]
# (§51) The control compound (verapamil) was included in the assay. Any value of the compounds that was not within the specified limits will be rejected and the experiment will be repeated.
# [8] = Liver microsomes metabolic stability assay, human; assay type: in vitro ADME; details: human liver microsomes 0.5 mg/mL, 37° C.
# Procedure: as §40, §41, §42, §43, §44, §45, §46, §47, §48, §49, §50, §51
# [9] = Liver microsomes metabolic stability assay, mouse; assay type: in vitro ADME; details: mouse liver microsomes 0.5 mg/mL, 37° C.
# Procedure: as §40, §41, §42, §43, §44, §45, §46, §47, §48, §49, §50, §51
# [10] = molecular target: T2, Ba/F3-ETV6-NTRK3 (Homo sapiens, UniProt Q16288); test: Ba/F3-ETV6-NTRK3 cells proliferation assay; assay type: cell-based; details: 72 h, CellTiter Glo
# T2 construct: Ba/F3 cells with TPM3-NTRK1 or ETV6-NTRK3 fusion mutation gene stably overexpressed named Ba/F3-TPM3-NTRK1 and Ba/F3-ETV6-NTRK3; fused on or other part: P41212 (Transcription factor ETV6)
# T2 sequence (Q16288 whole entry, the tested form may be a part): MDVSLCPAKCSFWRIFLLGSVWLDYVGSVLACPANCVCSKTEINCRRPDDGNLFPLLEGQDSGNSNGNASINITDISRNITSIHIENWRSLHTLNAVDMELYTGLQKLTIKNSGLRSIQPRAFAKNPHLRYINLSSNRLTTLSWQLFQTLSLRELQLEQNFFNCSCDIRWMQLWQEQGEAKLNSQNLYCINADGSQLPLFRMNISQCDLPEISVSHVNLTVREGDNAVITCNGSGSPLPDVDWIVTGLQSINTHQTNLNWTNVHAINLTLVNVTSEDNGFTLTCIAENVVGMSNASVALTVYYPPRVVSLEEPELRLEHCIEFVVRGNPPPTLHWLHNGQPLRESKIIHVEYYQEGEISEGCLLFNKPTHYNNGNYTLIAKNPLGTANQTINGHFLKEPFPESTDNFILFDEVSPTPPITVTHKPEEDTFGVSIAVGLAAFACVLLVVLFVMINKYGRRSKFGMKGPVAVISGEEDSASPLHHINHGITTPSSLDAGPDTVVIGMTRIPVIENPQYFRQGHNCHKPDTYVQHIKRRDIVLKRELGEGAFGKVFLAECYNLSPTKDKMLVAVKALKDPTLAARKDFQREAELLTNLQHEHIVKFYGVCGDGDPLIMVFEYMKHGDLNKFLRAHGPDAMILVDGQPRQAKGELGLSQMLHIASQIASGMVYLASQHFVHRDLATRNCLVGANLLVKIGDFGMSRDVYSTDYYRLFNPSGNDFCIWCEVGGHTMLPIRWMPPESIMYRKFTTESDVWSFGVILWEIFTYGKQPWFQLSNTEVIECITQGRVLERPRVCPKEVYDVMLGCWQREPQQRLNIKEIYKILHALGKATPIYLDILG
# Procedure: as §1, §2, §3, §4, §5, §6, §7, §8, §9, §10, §11, §12, §13, §14, §15, §16, §17, §18
# Chain of TrkA kinase (P04629 33-796): as the sequence (P04629 33-796 G595R) above, with R563G counted along it
structure (smiles),measurement,setting,value
"OCc1cc2nc(-c3cnn4ccc(N5CCC[C@@H]5c5cc(F)ccc5F)nc34)oc2cc1F [Compound 94, (R)-(2-(5-(2-(2,5-difluorophenyl)pyrrolidin-1-yl)pyrazolo[1,5-a]pyrimidin-3-yl)-6-fluorobenzo[d]oxazol-5-yl)methanol]",IC50,[1]; numeric values,0.79 nM
same,IC50,[2],1.38 nM
same,IC50,[3],62.9 nM
"CN(C)c1cc2[nH]c(-c3cnn4ccc(N5CCC[C@@H]5c5cc(F)ccc5F)nc34)nc2cc1C#N [Compound 144, (R)-2-(5-(2-(2,5-difluorophenyl)pyrrolidin-1-yl)pyrazolo[1,5-a]pyrimidin-3-yl)-6-(dimethylamino)-1H-benzo[d]imidazole-5-carbonitrile]",IC50,[1]; numeric values,1.1 nM
same,IC50,[2],3.39 nM
same,IC50,[3],221 nM
"C[C@@H](O)c1nnc(-c2cnn3ccc(N4CCC[C@@H]4c4cc(F)ccc4F)nc23)[nH]1 [Compound 34, (R)-1-(5-(5-((R)-2-(2,5-difluorophenyl)pyrrolidin-1-yl)pyrazolo[1,5-a]pyrimidin-3-yl)-4H-1,2,4-triazol-3-yl)ethan-1-ol]","recovery at 6 h, 1 μM",[4],91.7%
same,"fraction unbound at 6 h, 1 μM",[4],0.0868
same,"recovery at 6 h, 1 μM",[5],92.4%
same,"fraction unbound at 6 h, 1 μM",[5],0.109
same,IC50,[1]; numeric values,0.71 nM
same,IC50,[2],3.33 nM
same,"recovery at 6 h, 1 μM",[6],98.6%
same,"fraction unbound at 6 h, 1 μM",[6],0.0918
"O=C(O)c1nnc(-c2cnn3ccc(N4CCC[C@@H]4c4cc(F)ccc4F)nc23)[nH]1 [Compound 17, (R)-5-(5-(2-(2,5-difluorophenyl)pyrrolidin-1-yl)pyrazolo[1,5-a]pyrimidin-3-yl)-4H-1,2,4-triazole-3-carboxylic acid]",half-life at 2 μM,"[7]; male, read-out: t1/2 Rat",10.4 h
same,CLint Rat,[7]; 2 μM,0.00 μL/min/mg proteins
same,IC50,[1]; class symbols,> 50 nM
same,t1/2 Human,[8]; 2 μM,∞
same,microsomal CLint at 2 μM,[8],0.27 µL/min/mg
same,IC50,[2],4.1 nM
same,microsomal CLint at 2 μM,[9]; male,2.23 µL/min/mg
same,t1/2 Mouse,[9]; 2 μM,∞
same,IC50,[10],3.56 nM
"Fc1ccc(F)c([C@H]2CCCN2c2ccn3ncc(-c4nnc(-c5cnccn5)[nH]4)c3n2)c1 [Compound 10, (R)-5-(2-(2,5-difluorophenyl)pyrrolidin-1-yl)-3-(5-(pyrazin-2-yl)-4H-1,2,4-triazol-3-yl)pyrazolo[1,5-a]pyrimidine]",IC50,[1]; class symbols,10 to 50 nM
same,IC50,[2],1.16 nM
same,IC50,[10],1.2 nM
"NC1(c2nnc(-c3cnn4ccc(N5CCC[C@@H]5c5cc(F)ccc5F)nc34)[nH]2)CCC1 [Compound 24, (R)-1-(5-(5-(2-(2,5-difluorophenyl)pyrrolidin-1-yl)pyrazolo[1,5-a]pyrimidin-3-yl)-4H-1,2,4-triazol-3-yl)cyclobutan-1-amine]","recovery at 6 h, 1 μM",[4],85.9%
same,"fraction unbound at 6 h, 1 μM",[4],0.126
same,"recovery at 6 h, 1 μM",[5],82.5%
same,"fraction unbound at 6 h, 1 μM",[5],0.164
same,IC50,[1]; numeric values,11.8 nM
same,"recovery at 6 h, 1 μM",[6],86.5%
same,"fraction unbound at 6 h, 1 μM",[6],0.0817
"Fc1ccc(F)c([C@H]2CCCN2c2ccn3ncc(-c4nnc(-c5ccc(C(F)(F)F)nc5)[nH]4)c3n2)c1 [Compound 14, (R)-5-(2-(2,5-difluorophenyl)pyrrolidin-1-yl)-3-(5-(6-(trifluoromethyl)pyridin-3-yl)-4H-1,2,4-triazol-3-yl)pyrazolo[1,5-a]pyrimidine]",IC50,[1]; class symbols,> 50 nM
same,IC50,[2],12.5 nM
same,IC50,[10],10 nM
